Results published in patent publication US20120022163A1 (priority 2010, published 2012).
“Also recorded” adds a separate entry of the source. Read-outs that look alike come from different tables or passages of the source.

Experiments:
[1] = tested on: gamma secretase; settings: cited from earlier work
[2] = tested on: RML (Rocky Mountains Laboratories) strain of the mouse scrapie agent; format: in vivo, CD1 female mice; settings: Log-Rank test
[3] = mouse, in vivo, po
[4] = tested on: PrP^sc; format: in vivo, CD1 female mice; settings: mice sacrificed at clinical end stage; brain
[5] = tested on: PrP^sc; format: in vivo, CD1 female mice; settings: ip infected mice; cerebellum, hippocampus and parietal cortex

In the case of `O=C(O)C1(c2ccc(-c3ccc(Cl)c(Cl)c3)c(F)c2)CC1` [CHF 5074], the “mode of action on gamma secretase” value [1] is given as “gamma secretase modulator”, the “survival time, treated versus untreated” value ([2]; ic infected mice) is given as “no difference; also recorded: no effect” and the “survival time, treated versus untreated” value ([2]; ip infected mice) is given as “significantly increases the survival; also recorded: significant difference; also recorded: significantly prolongs survival times”. The “safety and tolerability of chronic administration” value [3] was “safe and well tolerate”, the “content of PrP^sc among the different groups (Western blot)” value [4] was “without significant differences” and the “PrP^sc deposits in brain areas (immunohistochemistry), treated compared to controls” value [5] was “significant lower PrP^sc deposits”.
